Data as given in patent US20240207212A1, “METHODS AND COMPOSITIONS FOR TREATING INFLAMMATION” (priority 2017, published 2024).

Legend:
P-gp = P-gp (Homo sapiens, UniProt P08183); assay: Semi-quantitative MS analysis of enriched AMEND preparations from control and P-gp knockdown T84 cells; conditions: for Average (relative abundance, normalized to anandamide-d8 standard): anandamide-d8 standard at 1 μg/μL
Description: Generation of P-gp knockdown T84 cell lines. Purified DNA containing shRNA constructs targeting the mdr1a gene in a pLK0.1 plasmid background was obtained from the UMass RNAi core. Constructs were as follows: B4 (Clone ID: TRCN0000059683), B5 (Clone ID: TRCN0000059684), B6 (Clone ID: TRCN0000059685), B7 (Clone ID: TRCN0000059686), B8 (Clone ID: TRCN0000059687). Lentiviruses were produced by transfecting packaging cells (293T) with psPAX2, pMD.2G, and pLK0.1 plasmid constructs, using Trans-IT-LT1 lipid (Mirus Bio). After 48 hours, lentiviral supernatants were harvested, combined with 8 μg/mL polybrene (Sigma-Aldrich) and applied to T84 cells in 20% confluent monolayers. This process was repeated 24 hours later, and 48 hours following the second transfection, resistant cells were selected with 5 μg/mL puromycin.
Production of enriched AMEND. T84 cells were grown as confluent monolayers in 162 cm^2 flasks and equilibrated in Hanks Buffered Saline Solution with Mg^2+/Ca^2+ (HBSS+/+) at 37° C., 5% CO2. […] Cell supernatants collected over the course of five hours were pooled from 30 flasks, lyophilized, resuspended in water and ultrafiltered through Amicon 1,000-Da cutoff membrane (Millipore) with N2 positive pressure. Samples were captured on a C18 Bakerbond® SepPak column, washed with water and hexane, eluted with methanol, dried under N2 gas and stored at −80° C. Before use in migration experiments, samples were resuspended in HBSS+/+as needed. For screening in the DiscoveRx GPCR β-arrestin activity assay (Fremont, CA), samples were resuspended in PBS to provide a 1000× solution for screening.
LC/MS analysis of AMEND. MeOH-eluted preparations as above were dried under a stream of N2 (g), re-suspended in MeOH/buffer and separated by HPLC using a Vydac (Hesperia, CA) C18 (10 um; 300 Å) semi-preparative column ([…]). Active AMEND fractions were characterized by HPLC/Mass spectrometry (Genesis C18 (4 um, 120 Å) analytical HPLC column (4.6×150 mm) equilibrated with 5 mM triethylamine acetic acid (pH 7.2) with the effluent analyzed by using a Finnigan LCQDeca electrospray mass spectrometer.
Selected samples were analyzed for high mass accuracy determination and solubilized in 50:50 acetonitrile:H2O with 0.2% formic acid. A MAXIS-HD ultra-high resolution quadrupole time-of-flight (UHR-ESI-QTOF) mass spectrometer (Bruker Daltonik GmbH, Bremen, Germany) was used; this was coupled to a syringe driver (Hamilton, Bonaduz, Switzerland) with the sample solution being infused at a rate of 3 μL/min.
Nitrogen acted as the nebulizing gas, applied at a pressure of 2 bar. The drying gas was also nitrogen, supplied at a flow rate of 8 L/min and a temperature of 200° C. Positive ion mode was used with a corresponding capillary voltage of −4500V. Only full scan data was acquired. For each batch of samples a solution of 5 mM sodium formate clusters was also analysed. This acted as an external data file calibrant over the mass range 75-1000 m/z. The recalibrated detected mass and isotope pattern were used in the FindFormula tool to generate a list of potential theoretical formulae within 2 mDa of the detected mass. The detected isotope pattern was used to sort this list.
Data acquisition and automated processing was controlled via Compass OpenAccess 1.7 software (Bruker Daltonik GmbH, Bremen, Germany), and data processing was carried out using DataAnalysis 3.4 (Bruker Daltonik GmbH, Bremen, Germany). At each step care was taken to avoid sample degradation and oxidation by maintaining them on ice and under N2 gas as much as possible. Relative quantification by ion intensities was performed by the summation of intensities for protonated and sodiated ions to compensate for possible variation in adduct formation due to varying biological sodium levels.
With respect to Table 2, semi-quantitative MS analysis was performed to compare enriched AMEND preparations from control T84 cells to those with shRNA-mediated P-gp knockdown (B4-mdr1a and B5-mdr1a).

[1] = tested on: HXA3-induced neutrophil migration; assay: 96-well neutrophil migration assay (modified Boyden chamber, cell-free); assay type: cell-based, human; conditions: for AMEND inhibitory activity of purified compounds in the cell-free migration assay: FIG. 2F
Method: Supernatants from T84 epithelial monolayers were enriched for lipids and tested for ability to inhibit HXA3-induced migration in a 96-well modified Boyden chamber assay (FIG. 2A). In order to compare across experiments with different donors, migration values within individual experiments were normalized to enriched HXA3 with vehicle treatment. […] FIG. 2C performed as in FIG. 2A, but prior to use in the migration assays enriched T84 supernatants were pretreated with FAAH or MAGL at 37 °C for 30 min. […] Commercially available endocannabinoids and related compounds were tested in the 96 well migration assay (FIG. 2F). Compounds were used at the highest concentration at which they were soluble in PBS. Data are mean+/−SEM of at least 3 independent experiments, *=p<0.05 and **=p<0.01 by one-way ANOVA.
96-well neutrophil migration.
Purified compounds used in migration assays.

MRP1 = MRP1 (Homo sapiens, UniProt P33527); conditions: low affinity substrate of MRP1; cited from earlier work
[2] = tested on: neutrophil migration across NIH-H292 cells infected with Streptococcus pneumoniae; assay: In vitro PMN transepithelial migration across H292 monolayers infected with S. pneumoniae; assay type: cell-based, human; conditions: 100 μM pretreatment before infection with 10 MOI Streptococcus pneumoniae, vs mock-treated (FIG. 19A, FIG. 20D)
Method: S. pneumoniae can induce PMN transepithelial migration across model lung epithelia where a well-established in vitro model system is utilized. Briefly, H292 cells are seeded on permeable supports to form a barrier, thereby mimicking the in vivo architecture. Freshly isolated human neutrophils are then applied to the basolateral chamber of the transwell, allowing the neutrophils to transverse the epithelial layer in response to chemoattractants released by the epithelium.
Using an in vitro model of neutrophil (PMN) migration, we examined the results of MRP2 inhibition. NIH-H292 cells were incubated with 100 μM of the MRP2 inhibitor Probenecid (horizontal striped) or mock treated with PBS (black) before infection. Both control and probenecid treated cells were then washed and infected with 10 MOI Streptococcus pneumoniae. Neutrophils were placed in the basolateral chamber of the membrane construct and allowed to migrate post-infection. Neutrophils that have traveled to the apical chamber were quantified with a modified myeloperoxidase assay against a standard number of neutrophils. Shown in FIG. 20D is a representative data set that has been repeated at least 3 times. […] Uninfected cells are represented in white, labeled “Buffer”. Statics performed using unpaired T-test.

[3] = tested on: C57BL/6 mice infected with Streptococcus pneumoniae; assay: S. pneumoniae lung infection of mice with MRP2 inhibition; assay type: in vivo
Method: FIGS. 19A-19E. MRP2 inhibition in vivo. Using an in vitro model of neutrophil migration, we examined the results of MRP2 inhibition. MRP2 inhibition via Probenecid treatment results in a reduction of neutrophils migrating in a basolateral-to-apical direction (FIG. 19A). Following this in vitro result, C57/B16 mice were treated with either PBS or Probenecid and subsequently infected with Streptococcus pneumoniae. Mice treated with probenecid had fewer Cd11b-positive/Ly6g-positive cells (neutrophils) in the bronchoalveolar lavage (BAL) isolated from infected lungs (FIG. 19B).
S. pneumoniae infection under conditions where MRP2 function was impeded with probenecid was examined. C57BL/6 mice were infected with between 1×10^5 and 3×10^5 bacteria via the trachea, leading to lobar pneumonia and progressing to bacteremia and sepsis, after which the mice succumb to infection. Probenecid was delivered 3 hours prior to infection as a primer and again at 3-hours post-infection.

[4] = B4-mdr1a P-gp knockdown T84 cells
[5] = B4-mdr1a P-gp knockdown vs control T84 cells
[6] = B5-mdr1a P-gp knockdown T84 cells
[7] = B5-mdr1a P-gp knockdown vs control T84 cells
[8] = used at 0.01 mg/mL (highest concentration soluble in PBS, diluted 1:10)

Chain of P-gp (P08183 whole entry): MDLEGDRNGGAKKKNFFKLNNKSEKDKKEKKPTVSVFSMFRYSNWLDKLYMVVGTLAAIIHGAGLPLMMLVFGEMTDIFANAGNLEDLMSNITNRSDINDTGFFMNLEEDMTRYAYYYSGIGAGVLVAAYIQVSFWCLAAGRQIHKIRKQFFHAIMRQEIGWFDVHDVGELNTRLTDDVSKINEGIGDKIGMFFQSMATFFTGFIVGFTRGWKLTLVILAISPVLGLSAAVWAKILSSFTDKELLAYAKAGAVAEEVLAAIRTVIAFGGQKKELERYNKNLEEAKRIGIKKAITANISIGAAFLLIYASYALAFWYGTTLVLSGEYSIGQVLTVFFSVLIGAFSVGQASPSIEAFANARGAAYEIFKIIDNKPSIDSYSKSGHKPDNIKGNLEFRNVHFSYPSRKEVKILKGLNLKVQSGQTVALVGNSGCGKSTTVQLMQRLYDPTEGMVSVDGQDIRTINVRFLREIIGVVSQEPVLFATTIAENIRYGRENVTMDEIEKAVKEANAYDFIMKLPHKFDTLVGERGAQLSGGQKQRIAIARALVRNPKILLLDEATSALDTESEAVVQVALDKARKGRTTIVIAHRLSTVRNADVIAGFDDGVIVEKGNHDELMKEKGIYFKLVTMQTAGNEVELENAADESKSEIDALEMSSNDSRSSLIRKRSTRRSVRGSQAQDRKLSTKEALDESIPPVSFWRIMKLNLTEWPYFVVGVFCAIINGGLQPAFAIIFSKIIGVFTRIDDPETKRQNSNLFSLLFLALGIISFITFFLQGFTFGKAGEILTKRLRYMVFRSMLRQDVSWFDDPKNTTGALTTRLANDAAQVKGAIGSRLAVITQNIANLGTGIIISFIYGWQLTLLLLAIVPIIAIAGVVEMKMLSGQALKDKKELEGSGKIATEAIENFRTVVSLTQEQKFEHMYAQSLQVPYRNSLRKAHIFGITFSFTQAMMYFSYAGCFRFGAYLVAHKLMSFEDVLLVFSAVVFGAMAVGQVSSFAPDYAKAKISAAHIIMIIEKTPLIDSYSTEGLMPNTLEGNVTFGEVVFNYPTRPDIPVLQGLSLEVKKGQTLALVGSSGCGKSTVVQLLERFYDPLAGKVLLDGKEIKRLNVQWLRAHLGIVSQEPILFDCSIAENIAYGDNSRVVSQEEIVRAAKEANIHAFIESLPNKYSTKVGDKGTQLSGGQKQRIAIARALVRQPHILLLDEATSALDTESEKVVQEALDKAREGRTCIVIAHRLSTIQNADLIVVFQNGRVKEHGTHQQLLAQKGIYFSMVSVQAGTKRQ
Chain of MRP1 (P33527 whole entry): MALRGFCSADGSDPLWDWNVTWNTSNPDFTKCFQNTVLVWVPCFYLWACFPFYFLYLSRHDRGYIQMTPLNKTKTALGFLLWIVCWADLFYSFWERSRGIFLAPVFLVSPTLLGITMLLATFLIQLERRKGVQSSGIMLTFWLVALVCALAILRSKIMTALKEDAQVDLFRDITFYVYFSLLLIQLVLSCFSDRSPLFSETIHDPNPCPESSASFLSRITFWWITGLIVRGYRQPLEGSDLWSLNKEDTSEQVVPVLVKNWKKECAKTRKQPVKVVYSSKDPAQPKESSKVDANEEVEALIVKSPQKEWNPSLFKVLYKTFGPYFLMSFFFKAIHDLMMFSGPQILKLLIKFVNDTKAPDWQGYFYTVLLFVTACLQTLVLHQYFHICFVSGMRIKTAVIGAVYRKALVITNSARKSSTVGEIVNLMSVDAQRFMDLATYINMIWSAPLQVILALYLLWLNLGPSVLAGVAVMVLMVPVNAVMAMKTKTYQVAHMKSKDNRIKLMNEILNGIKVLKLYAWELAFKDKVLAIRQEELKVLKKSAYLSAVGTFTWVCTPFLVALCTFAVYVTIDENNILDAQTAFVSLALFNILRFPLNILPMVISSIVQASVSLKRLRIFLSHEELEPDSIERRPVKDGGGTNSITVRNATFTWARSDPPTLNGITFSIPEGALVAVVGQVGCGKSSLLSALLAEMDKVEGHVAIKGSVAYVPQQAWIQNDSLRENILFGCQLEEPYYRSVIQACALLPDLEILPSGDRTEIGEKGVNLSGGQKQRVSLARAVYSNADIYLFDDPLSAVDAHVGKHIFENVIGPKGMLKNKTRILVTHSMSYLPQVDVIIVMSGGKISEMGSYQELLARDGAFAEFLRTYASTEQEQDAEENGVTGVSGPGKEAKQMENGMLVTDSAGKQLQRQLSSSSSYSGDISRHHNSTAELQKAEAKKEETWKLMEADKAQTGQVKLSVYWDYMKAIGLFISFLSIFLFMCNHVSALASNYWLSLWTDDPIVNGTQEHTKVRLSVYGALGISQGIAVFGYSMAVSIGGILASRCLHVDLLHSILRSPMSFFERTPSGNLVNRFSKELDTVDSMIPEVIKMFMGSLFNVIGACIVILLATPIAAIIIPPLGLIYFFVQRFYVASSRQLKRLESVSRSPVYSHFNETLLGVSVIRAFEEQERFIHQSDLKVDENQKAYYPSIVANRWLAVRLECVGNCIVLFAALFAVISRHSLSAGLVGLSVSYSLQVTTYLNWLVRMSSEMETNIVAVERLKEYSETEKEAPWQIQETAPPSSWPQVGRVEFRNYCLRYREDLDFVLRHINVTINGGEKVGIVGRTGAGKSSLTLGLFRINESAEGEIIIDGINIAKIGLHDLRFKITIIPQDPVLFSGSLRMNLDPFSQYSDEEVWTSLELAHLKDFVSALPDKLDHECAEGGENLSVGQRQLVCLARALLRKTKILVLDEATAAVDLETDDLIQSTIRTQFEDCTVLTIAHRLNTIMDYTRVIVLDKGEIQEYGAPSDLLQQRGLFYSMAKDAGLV

CCCCC/C=C\C/C=C\C/C=C\C/C=C\CCCC(=O)OC(CO)CO [2-Arachidonoyl Glycerol (2-AG), 2-arachidonoyl glycerol]
Average (relative abundance, normalized to anandamide-d8 standard) (P-gp; [4]): 32.17 | % of Control (P-gp; [5]): 91% | Average (relative abundance, normalized to anandamide-d8 standard) (P-gp; [6]): 29.47 | % of Control (P-gp; [7]): 83% | Average (relative abundance, normalized to anandamide-d8 standard) (P-gp; control T84 cells): 35.53

CCCCC/C=C\C/C=C\C/C=C\C/C=C\CCCC(=O)NCCO [Anandamide (AEA), Arachidonoyl ethanolamide]
AMEND inhibitory activity of purified compounds in the cell-free migration assay [1, 8]: significant inhibitory activity

N[C@@H](CCC(=O)N[C@@H](CS)C(=O)NCC(=O)O)C(=O)O [Glutathione]
Km (MRP1): 1000 to 5000 µM

CCCCC[C@H](O)/C=C/C=C\C=C\C=C\[C@@H](O)[C@@H](O)CCCC(=O)O [Lipoxin A4]
inhibitory activity on HXA3-induced migration after treatment with FAAH ([1]; pretreated with FAAH at 37°C for 30 min, Lipoxin used at 10 nM (FIG. 2C, FIG. 8)): not sensitive | inhibitory activity on HXA3-induced migration after treatment with MAGL ([1]; pretreated with MAGL at 37°C for 30 min, Lipoxin used at 10 nM (FIG. 2C, FIG. 8)): not sensitive

CCCCC/C=C\C/C=C\C/C=C\C/C=C\CCCC(=O)NCCc1ccc(O)c(O)c1 [N-Arachidonoyl Dopamine]
Average (relative abundance, normalized to anandamide-d8 standard) (P-gp; [4]): 1.97 | Average (relative abundance, normalized to anandamide-d8 standard) (P-gp; [6]): 1.90 | Average (relative abundance, normalized to anandamide-d8 standard) (P-gp; control T84 cells): 0.00

CCCCC/C=C\C/C=C\C/C=C\C/C=C\CCCCOC(CO)CO [Noladin ether]
Average (relative abundance, normalized to anandamide-d8 standard) (P-gp; [4]): 154.03 | % of Control (P-gp; [5]): 461% | Average (relative abundance, normalized to anandamide-d8 standard) (P-gp; [6]): 56.23 | % of Control (P-gp; [7]): 168% | Average (relative abundance, normalized to anandamide-d8 standard) (P-gp; control T84 cells): 33.43

CCCCCCCC/C=C\CCCCCCCC(=O)NCCO [Oleoyl ethanolamide (OEA), Oleoyl ethanolamide]
AMEND inhibitory activity of purified compounds in the cell-free migration assay [1, 8]: significant inhibitory activity

CCCN(CCC)S(=O)(=O)c1ccc(C(=O)O)cc1 [Probenecid]
number of neutrophils migrating basolateral-to-apical across infected H292 monolayers [2]: effectively reduced | number of neutrophils migrating basolateral-to-apical across infected H292 monolayers ([2]; listed as probenecid): significantly fewer | reduction in bacteremia ([3]; 48 post-infection, no longer statistically significant (FIG. 19C)): 10 fold | number of bacteria in the lung ([3]; 48 hours post-infection): the same | other granulocytes in the mouse lung ([3]; Cd11b+/Cd45+/Ly6g- granulocytes (FIG. 19D)): no reduction | lower CFU in the blood of mice that developed bacteremia, compared to PBS-treated mice ([3]; D1 post-infection (FIG. 19C)): approximately 10 fold | cases of bacteremia ([3]; D1 post-infection, vs PBS-treated mice (FIG. 19C)): fewer cases | fewer neutrophils in bronchoalveolar lavage fluid (BALF) than PBS-treated mice ([3]; Day 1 post-infection, delivered 3 hours prior to and 3 hours post-infection (FIG. 19B)): 35% | difference in the bacterial CFU in mice that did not develop bacteremia ([3]; failed to reach statistical significance (FIG. 19E)): approximately 2 fold

CC/C=C\C/C=C\C/C=C\CCCCCCCC(=O)NCCO [α-LEA, α-Linolenoyl Ethanolamide]
AMEND inhibitory activity of purified compounds in the cell-free migration assay ([1]; used at 0.005 mg/mL (highest concentration soluble in PBS, diluted 1:10)): significant inhibitory activity
